The values below come from patent publication US12497460B2, “Anti-MSR1 antibodies and methods of use thereof” (REGENERON PHARMACEUTICALS, INC., priority 2018, dated 2025).

≈ marks a conversion by molar mass, not a printed value. Entries after “also recorded” stand apart in the source; their conditions may differ.

One may read the solubility as the concentration that dissolves in the medium under given conditions. A lower solubility goes with little dissolved substance.

Series [1] is described as follows: Solubility in water of linker-payloads.
The subject of a further series is S. aureus NRS384. Kind of series: Broth minimum inhibitory concentration (MIC) assay. To be noted: S. aureus NRS384, TSB, 24h, 37° C. The series is classed as cell-based. The protocol: To test the efficacy of rifamycin analogs of the disclosure in vitro, a broth growth inhibition assay was developed. For the assay, S. aureus NRS384 was grown in Tryptic Soy Broth (TSB) overnight, then sub-cultured 1:50 in fresh TSB and grown for an additional two hours. The culture was then pelleted via centrifugation and washed twice in PBS. The culture was then diluted to 1×10^4 cfu/mL in TSB and 50 μL of the suspension was added per well to a 96 well microtiter dish in duplicate. A dilution series of the indicated antibiotic (an analog according to the disclosure or a previously known analog Rifampicin) was added 1:1 for a final starting concentration of 1×10^−5 M with 1:3 dilutions.

Series [2] concerns intracellular S. aureus NRS384 in THP-1 macrophages. Put plainly: Intracellular S. aureus killing assay with rifamycin analogs (Example 44). The series is classed as cell-based. The following applies: for Intracellular killing MIC: lowest concentration that resulted in intracellular S. aureus eradication, THP-1 macrophages; for intracellular S. aureus killing (in words): infected THP-1 macrophages, 2h treatment, compared to rifampicin. The protocol:
The rifamycin analog compounds' activity against S. aureus was tested in an intracellular “killing” assay.
THP-1 monocytic cell line was grown in media (RMPI+10% FBS+1% Penicillin/Streptomycin), then seeded at a density of 1e5 cells/well in a 96 well plate and differentiated into macrophages for three days prior to infection using 200 nM PMA. An overnight culture of S. aureus NRS384 was grown in RPMI, washed twice with PBS and resuspended at 1e7 cfu/mL in PBS. THP-1 were washed with warm media (RMPI without FBS) to remove the Penicillin/Streptomycin and then infected with the S. aureus suspension at a multiplicity of infection of 10:1 (S. aureus: macrophages). Plates were spun at 300×g for 5 minutes to synchronize adhesion of the bacteria, then incubated at 37° C. for 2 hours. Free-floating bacteria were removed by washing 2× with warm media and remaining extracellular S. aureus were killed by addition of media containing gentamicin (50 ug/mL). After 1h, media was aspirated and the indicated compound was added to infected macrophages in media containing 50 μg/mL gentamicin to prevent extracellular growth of S. aureus. After 2h, plates were washed 2× with warm RPMI without FBS, and 100 ul of THP-1 lysis buffer (0.1% Triton in PBS) was added to each well. S. aureus survival was enumerated by colony forming units through serial dilution and plating onto TSA.

In turn, `CCCC1O[C@@H]2C[C@H]3[C@@H]4C[C@H](F)C5=CC(=O)C=C[C@]5(C)[C@@]4(F)[C@@H](O)C[C@]3(C)[C@]2(C(=O)CNC(=O)OCc2ccc(NC(=O)[C@H](CCCNC(N)=O)NC(=O)[C@@H](NC(=O)CCOCCOCCOCCOCCNC(=O)CCC(=O)N3Cc4ccccc4C#Cc4ccccc43)C(C)C)cc2)O1` (stereo partly shown) [LP13] came in with a solubility in series [1] of 20 µg/mL (≈ 14.2 µM).
Regarding `CO[C@H]1/C=C/O[C@@]2(C)Oc3c(C)c(O)c4c(=O)c(c5n(C)c6cc(O)ccc6nc-5c4c3C2=O)NC(=O)/C(C)=C\C=C\[C@H](C)[C@H](O)[C@@H](C)[C@@H](O)[C@@H](C)[C@H](OC(C)=O)[C@@H]1C` [R1d, Rifamycin 4-OH-Phenol N-Methyl Analogs], the “S. aureus Broth MIC” value in the series on S. aureus NRS384 was determined as 370 nM. For the same compound, the “Intracellular killing MIC” value in series [2] was more than 1.0E−06.
In series [1], `CCCC1O[C@@H]2C[C@H]3[C@@H]4C[C@H](F)C5=CC(=O)C=C[C@]5(C)[C@@]4(F)[C@@H](O)C[C@]3(C)C2(C(=O)CNC(=O)OCc2ccc(NC(=O)[C@H](CCCNC(N)=O)NC(=O)[C@@H](NC(=O)[C@@H](CCCCNC(=O)COC3CCCCCc4c3nnn4CC3OC4OC5C(CO)OC(OC6C(CO)OC(OC7C(CO)OC(OC8C(CO)OC(OC9C(CO)OC(OC3C(O)C4O)C(O)C9O)C(O)C8O)C(O)C7O)C(O)C6O)C(O)C5O)NC(=O)CCOCCOCCOCCOCCNC(=O)CCC(=O)N3Cc4ccccc4C#Cc4ccccc43)C(C)C)cc2)O1` (stereo partly shown) [LP14] registered a solubility of 26 µg/mL (≈ 9.64 µM).
In the case of `CO[C@H]1/C=C/O[C@@]2(C)Oc3c(C)c(O)c4c(=O)c(c5oc6cc(OCCN(C)C)ccc6nc-5c4c3C2=O)NC(=O)/C(C)=C\C=C\[C@H](C)[C@H](O)[C@@H](C)[C@@H](O)[C@@H](C)[C@H](OC(C)=O)[C@@H]1C` [R16a], the “S. aureus Broth MIC” value in the series with S. aureus NRS384 amounted to 1.5 nM. Besides, in series [2], the “intracellular S. aureus killing (in words)” value is “increased intracellular S. aureus killing capacity compared to rifampicin; also recorded: highest activity” and the “Intracellular killing MIC” value amounted to 4.0E−08.
On to `CO[C@H]1/C=C/O[C@@]2(C)Oc3c(C)c(O)c4c(=O)c(c5oc6cc(OC7CCNCC7)ccc6nc-5c4c3C2=O)NC(=O)/C(C)=C\C=C\[C@H](C)[C@H](O)[C@@H](C)[C@@H](O)[C@@H](C)[C@H](OC(C)=O)[C@@H]1C` [R14], for which the “S. aureus Broth MIC” value in the series with S. aureus NRS384 amounted to 41 nM. Also, in series [2], the “intracellular S. aureus killing (in words)” value is recorded as “increased intracellular S. aureus killing capacity compared to rifampicin” and the “Intracellular killing MIC” value was determined as 1.0E−06.
